{
  "source": "patent EP2815749A1",
  "about": "“Solid form of 4-amino-2-(2,6-dioxopiperidine-3-yl)isoindoline-1,3-dione having specified X-ray diffraction pattern” (IP Gesellschaft für Management mbH, priority 2013, dated 2014)",
  "key": {"[1]": {"test": "Solubility of pomalidomide in various solvents", "format": "physicochemical", "conditions": "ambient temperature", "procedure": "Pomalidomide Polymorph Preparations: A weighed sample of pomalidomide (about 100 mg) was treated with 2 mL of a test solvent. The solvents used were either reagent or HPLC grade. The resulting mixture was agitated for at least 24 hours at 25°C. When all of the solids were dissolved by visual inspection, the estimated solubilities were calculated. The solubility was estimated from these experiments based on the total volume of solvent used to give a solution. The actual solubility may be greater than those calculated due to the use of a large amount of solvent or to a slow rate of dissolution. […] A known volume of filtrate was evaporated to dryness and the weight of the residue was measured. Equilibration and evaporation experiments were carried out by adding an excess of pomalidomide to 4 mL of a test solvent. The resulting mixture was agitated for at least 24 hours at 25°C and 50°C separately. Upon reaching equilibrium, the saturated solution was removed and allowed to evaporate slowly in an open vial under nitrogen at 25°C and 50°C respectively. The slurry resulting from the equilibration was filtered and dried in the air. Crystallizations using cooling methods were performed. The solid was dissolved in a solvent at an elevated temperature, approximately 80°C and allowed to cool to room temperature. […] Solids were isolated by decantation and allowed to dry in the air. Precipitation studies were carried out by solvent/anti-solvent combinations. The solid was dissolved in a solvent in which pomalidomide solubility was high, and then a selected solvent in which pomalidomide was highly insoluble (anti-solvent) was added to the solution. A precipitate formed immediately in some solvent/anti-solvent systems. […] The precipitate was then isolated by decantation and allowed to dry in the air. All of the samples generated as described in the polymorph preparation study were analyzed by XRPD. X PD was conducted on a Thermo ARL X'TRA X-ray powder diffractometer using Cu Kcc radiation at 1.54 A. The instrument was equipped with a fine focus X-ray tube. The voltage and amperage of X-ray generator were set at 45 kV and 40 mA, respectively. The divergence slices were set at 4 mm and 2 mm and the measuring slices were set at 0.5 mm and 0.2 mm. Diffracted radiation was detected by peitier-cooled Si(Li) solid state detector. A theta-two theta continuous scan at 2.40°/min (0.5 sec/0.02c step) from 1.5° 20 to 40° 2.0 was used. A sintered alumina standard was used to check the peak position. DSC analyses were performed on a TA instrument Q1000. Indium was used as calibration standards. Approximately 2-5 mg of sample was placed into a DSC pan and the weight was accurately recorded. The sample was heated under nitrogen at a rate of 10°C/min, up to a final temperature of 350°C. Melting points were reported as extrapolated onset temperature. TG analyses were performed on a TA instrument Q500. Calcium oxalate was used for performance check. Approximately 10-25 mg of sample was placed on a pan, accurately weighed and loaded into the TG furnace. The sample was heated under nitrogen at a rate of 10°C/min, up to a final temperature of 350°C. Morphology and particle size analysis of the samples were carried out on an Olympus microscope. The instrument was calibrated with USP standards. Hygroscopicity was determined on a Surface Measurement Systems DVS. Typically a sample size of 10-50 mg was loaded into the DVS instrument sample pan and the sample was analyzed on a DVS automated sorption analyzer at 25°C. The relative humidity was increased in 10% increments from 0% to 95% RH. The relative humidity was then decreased in a similar mariner to accomplish a full adsosption/desorption cycle. […]"}, "[2]": {"test": "Approximate solubility of pomalidomide at 50°C in 96 solvent compositions (LC)", "format": "physicochemical", "conditions": "binary solvent composition (main solvent and co-solvent), 50 °C, organic solvent or mixture, thermodynamic from solid", "description": "Pomalidomide Solid Form Preparations: Preparation of solid form of pomalidomide was conducted by equilibrating pomalidomide in 96 solvent compositions at 50°C and subjected to four conditions: slurry, evaporation, cooling, and precipitation. […] Solvents were then added, as binary gradients consisting of main solvent and co-solvent, to give a total of 150 µl, in each of the 96 vials (see Table 6 for the exact composition of each vial). […] For each of the evaporation, precipitation, and cooling experiments, approximately 8 mg of a solid sample of pomalidomide (e.g., Form A) was delivered to each position of the plate. Solvents were added to the master plate, as binary gradients consisting of main solvent and co-solvent, to give a total volume of 800 µT in each of the 96 vials (see Table 7 for the exact composition of each vial). The master plate, containing pomalidomide and solvents, was then equilibrated by stirring for 2 hours at 50°C. Upon completion of the equilibration cycle, the supernatant was aspirated into a four-tipped needle assembly and transferred to a sealed parallel filtration assembly. The mixtures were forced through the filtration assembly using positive pressure and the filtrates were collected in an array of glass vials. The filtered solutions were subsequently aspirated into the four-tipped assembly and aliquots were dispensed to an array of glass vials for subsequent LC analysis to determine approximate concentrations of pomalidomide in each solvent composition at the beginning of the experiments (Table 8). Both the four-tipped needle assembly and filtration assembly were maintained at the equilibration temperature of 50°C throughout the entire transfer process.\nThe results correspond to the solvent systems described in Table 7, equilibrated at 50°C for 2 hours. […] The approximate concentrations were determined by LC."}},
  "note": "Where two headings read alike, the source gives them in different places.",
  "data": [
    {"smiles": "Nc1cccc2c1C(=O)N(C1CCC(=O)NC1=O)C2=O", "note": "(centres unmarked) [Pomalidomide, 4-amino-2-(2,6-dioxopiperidine-3-yl)isoindoline-1,3-dione]", "values": [
      {"measurement": "solubility", "setting": "[1]; Methyl t-butyl ether", "value": 1030, "unit": "µg/mL"},
      {"measurement": "solubility", "setting": "[1]; acetone, 25 °C, organic solvent or mixture, thermodynamic from solid, Acetone, read-out: Solubility", "value": 1990, "unit": "µg/mL"},
      {"measurement": "solubility", "setting": "[1]; acetonitrile, 25 °C, organic solvent or mixture, thermodynamic from solid, Acetonitrile, read-out: Solubility", "value": 1270, "unit": "µg/mL"},
      {"measurement": "solubility", "setting": "[1]; ethanol/water (1:1), 25 °C, aqueous with cosolvent or surfactant or cyclodextrin, thermodynamic from solid, Ethanol/Water (1:1), read-out: Solubility", "value": 540, "unit": "µg/mL"},
      {"measurement": "solubility", "setting": "[1]; methyl ethyl ketone, 25 °C, organic solvent or mixture, thermodynamic from solid, Methyl ethyl ketone, read-out: Solubility", "value": 1260, "unit": "µg/mL"},
      {"measurement": "solubility", "setting": "[1]; methyl t-butyl ether, 25 °C, organic solvent or mixture, thermodynamic from solid, Methyl t-butyl ether, read-out: Solubility", "value": "< 1000", "unit": "µg/mL"},
      {"measurement": "solubility", "setting": "[1]; methylene chloride, 25 °C, organic solvent or mixture, thermodynamic from solid, Methylene chloride, read-out: Solubility", "value": 1450, "unit": "µg/mL"},
      {"measurement": "solubility", "setting": "[1]; tetrahydrofuran, 25 °C, organic solvent or mixture, thermodynamic from solid, Tetrahydrofuran, read-out: Solubility", "value": 5260, "unit": "µg/mL"},
      {"measurement": "solubility at 2 h", "setting": "[2]; solvent system A4 of Table 7, read-out: Approximate Measured Solubility", "value": 1440, "unit": "µg/mL"},
      {"measurement": "solubility at 2 h", "setting": "[2]; solvent system A5 of Table 7, read-out: Approximate Measured Solubility", "value": 800, "unit": "µg/mL"},
      {"measurement": "solubility at 2 h", "setting": "[2]; solvent system A6 of Table 7, read-out: Approximate Measured Solubility", "value": 280, "unit": "µg/mL"},
      {"measurement": "solubility at 2 h", "setting": "[2]; solvent system A7 of Table 7, read-out: Approximate Measured Solubility", "value": 6980, "unit": "µg/mL"},
      {"measurement": "solubility at 2 h", "setting": "[2]; solvent system A8 of Table 7, read-out: Approximate Measured Solubility", "value": 7940, "unit": "µg/mL"},
      {"measurement": "solubility at 2 h", "setting": "[2]; solvent system A9 of Table 7, read-out: Approximate Measured Solubility", "value": 4410, "unit": "µg/mL"},
      {"measurement": "solubility at 2 h", "setting": "[2]; solvent system B1 of Table 7, read-out: Approximate Measured Solubility", "value": 230, "unit": "µg/mL"},
      {"measurement": "solubility at 2 h", "setting": "[2]; solvent system B2 of Table 7, read-out: Approximate Measured Solubility", "value": 790, "unit": "µg/mL"},
      {"measurement": "solubility at 2 h", "setting": "[2]; solvent system B3 of Table 7, read-out: Approximate Measured Solubility", "value": 1030, "unit": "µg/mL"},
      {"measurement": "solubility at 2 h", "setting": "[2]; solvent system B4 of Table 7, read-out: Approximate Measured Solubility", "value": 220, "unit": "µg/mL"},
      {"measurement": "solubility at 2 h", "setting": "[2]; solvent system B5 of Table 7, read-out: Approximate Measured Solubility", "value": 360, "unit": "µg/mL"},
      {"measurement": "solubility at 2 h", "setting": "[2]; solvent system B6 of Table 7, read-out: Approximate Measured Solubility", "value": 150, "unit": "µg/mL"},
      {"measurement": "solubility at 2 h", "setting": "[2]; solvent system B7 of Table 7, read-out: Approximate Measured Solubility", "value": 3160, "unit": "µg/mL"},
      {"measurement": "solubility at 2 h", "setting": "[2]; solvent system B8 of Table 7, read-out: Approximate Measured Solubility", "value": 1720, "unit": "µg/mL"},
      {"measurement": "solubility at 2 h", "setting": "[2]; solvent system B9 of Table 7, read-out: Approximate Measured Solubility", "value": 920, "unit": "µg/mL"},
      {"measurement": "solubility at 2 h", "setting": "[2]; solvent system B10 of Table 7, read-out: Approximate Measured Solubility", "value": 480, "unit": "µg/mL"},
      {"measurement": "solubility at 2 h", "setting": "[2]; solvent system B11 of Table 7, read-out: Approximate Measured Solubility", "value": 180, "unit": "µg/mL"},
      {"measurement": "solubility at 2 h", "setting": "[2]; solvent system C1 of Table 7, read-out: Approximate Measured Solubility", "value": 620, "unit": "µg/mL"},
      {"measurement": "solubility at 2 h", "setting": "[2]; solvent system C2 of Table 7, read-out: Approximate Measured Solubility", "value": 1410, "unit": "µg/mL"},
      {"measurement": "solubility at 2 h", "setting": "[2]; solvent system C3 of Table 7, read-out: Approximate Measured Solubility", "value": 1670, "unit": "µg/mL"},
      {"measurement": "solubility at 2 h", "setting": "[2]; solvent system C4 of Table 7, read-out: Approximate Measured Solubility", "value": 480, "unit": "µg/mL"},
      {"measurement": "solubility at 2 h", "setting": "[2]; solvent system C5 of Table 7, read-out: Approximate Measured Solubility", "value": 470, "unit": "µg/mL"},
      {"measurement": "solubility at 2 h", "setting": "[2]; solvent system C6 of Table 7, read-out: Approximate Measured Solubility", "value": 260, "unit": "µg/mL"},
      {"measurement": "solubility at 2 h", "setting": "[2]; solvent system C7 of Table 7, read-out: Approximate Measured Solubility", "value": 3710, "unit": "µg/mL"},
      {"measurement": "solubility at 2 h", "setting": "[2]; solvent system C8 of Table 7, read-out: Approximate Measured Solubility", "value": 2970, "unit": "µg/mL"},
      {"measurement": "solubility at 2 h", "setting": "[2]; solvent system C9 of Table 7, read-out: Approximate Measured Solubility", "value": 1840, "unit": "µg/mL"},
      {"measurement": "solubility at 2 h", "setting": "[2]; solvent system C10 of Table 7, read-out: Approximate Measured Solubility", "value": 1090, "unit": "µg/mL"},
      {"measurement": "solubility at 2 h", "setting": "[2]; solvent system C11 of Table 7, read-out: Approximate Measured Solubility", "value": 490, "unit": "µg/mL"},
      {"measurement": "solubility at 2 h", "setting": "[2]; solvent system C12 of Table 7, read-out: Approximate Measured Solubility", "value": 340, "unit": "µg/mL"},
      {"measurement": "solubility at 2 h", "setting": "[2]; solvent system D1 of Table 7, read-out: Approximate Measured Solubility", "value": 1530, "unit": "µg/mL"},
      {"measurement": "solubility at 2 h", "setting": "[2]; solvent system D2 of Table 7, read-out: Approximate Measured Solubility", "value": 670, "unit": "µg/mL"},
      {"measurement": "solubility at 2 h", "setting": "[2]; solvent system D3 of Table 7, read-out: Approximate Measured Solubility", "value": 3460, "unit": "µg/mL"},
      {"measurement": "solubility at 2 h", "setting": "[2]; solvent system D4 of Table 7, read-out: Approximate Measured Solubility", "value": 2500, "unit": "µg/mL"},
      {"measurement": "solubility at 2 h", "setting": "[2]; solvent system D5 of Table 7, read-out: Approximate Measured Solubility", "value": 1940, "unit": "µg/mL"},
      {"measurement": "solubility at 2 h", "setting": "[2]; solvent system D6 of Table 7, read-out: Approximate Measured Solubility", "value": 490, "unit": "µg/mL"},
      {"measurement": "solubility at 2 h", "setting": "[2]; solvent system D7 of Table 7, read-out: Approximate Measured Solubility", "value": 3700, "unit": "µg/mL"},
      {"measurement": "solubility at 2 h", "setting": "[2]; solvent system D8 of Table 7, read-out: Approximate Measured Solubility", "value": 2310, "unit": "µg/mL"},
      {"measurement": "solubility at 2 h", "setting": "[2]; solvent system D10 of Table 7, read-out: Approximate Measured Solubility", "value": 560, "unit": "µg/mL"},
      {"measurement": "solubility at 2 h", "setting": "[2]; solvent system D11 of Table 7, read-out: Approximate Measured Solubility", "value": 1160, "unit": "µg/mL"}
    ]}
  ]
}
